Legend:
[1] = target: T1, ProE (Pseudomonas aeruginosa, UniProt Q9HTQ9); experiment: HPLC of pGpG formation, […] nm; format: biochemical; details: 50 uM c-di-GMP, 0.08 uM enzyme, Tris-HCl pH 8.0, 20 mM KCl, 5 mM MgCl2, 37 C, 20 min
T1 construct: gene PA5295; coding region in pET28b(+) (BamHI/HindIII), His tag, Ni-NTA purified; GGDEF 113-282, EAL 292-538; tag removal not mentioned

[2] = target: T2, WspR (Pseudomonas aeruginosa, UniProt Q9HXT9); experiment: HPLC of c-di-GMP formation; format: biochemical; details: 500 uM GTP, 5 uM enzyme, Tris-HCl pH 7.8, 250 mM NaCl, 25 mM KCl, 10 mM MgCl2, 37 C, 120 min
T2 construct: wspR in pET28b(+) (BamHI/HindIII), His tag, Ni-NTA purified; tag removal not mentioned
T2 sequence (Q9HXT9 entry or part of it): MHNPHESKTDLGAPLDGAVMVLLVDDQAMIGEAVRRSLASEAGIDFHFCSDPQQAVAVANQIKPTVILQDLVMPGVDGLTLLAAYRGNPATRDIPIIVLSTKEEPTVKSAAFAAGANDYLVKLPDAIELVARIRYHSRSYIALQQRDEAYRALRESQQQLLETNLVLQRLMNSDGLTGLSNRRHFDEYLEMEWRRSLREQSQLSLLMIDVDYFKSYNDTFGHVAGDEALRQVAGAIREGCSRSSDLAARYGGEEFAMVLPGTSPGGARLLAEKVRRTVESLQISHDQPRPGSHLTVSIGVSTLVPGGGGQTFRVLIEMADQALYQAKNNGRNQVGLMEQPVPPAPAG

T1 sequence (Q9HTQ9 entry or part of it): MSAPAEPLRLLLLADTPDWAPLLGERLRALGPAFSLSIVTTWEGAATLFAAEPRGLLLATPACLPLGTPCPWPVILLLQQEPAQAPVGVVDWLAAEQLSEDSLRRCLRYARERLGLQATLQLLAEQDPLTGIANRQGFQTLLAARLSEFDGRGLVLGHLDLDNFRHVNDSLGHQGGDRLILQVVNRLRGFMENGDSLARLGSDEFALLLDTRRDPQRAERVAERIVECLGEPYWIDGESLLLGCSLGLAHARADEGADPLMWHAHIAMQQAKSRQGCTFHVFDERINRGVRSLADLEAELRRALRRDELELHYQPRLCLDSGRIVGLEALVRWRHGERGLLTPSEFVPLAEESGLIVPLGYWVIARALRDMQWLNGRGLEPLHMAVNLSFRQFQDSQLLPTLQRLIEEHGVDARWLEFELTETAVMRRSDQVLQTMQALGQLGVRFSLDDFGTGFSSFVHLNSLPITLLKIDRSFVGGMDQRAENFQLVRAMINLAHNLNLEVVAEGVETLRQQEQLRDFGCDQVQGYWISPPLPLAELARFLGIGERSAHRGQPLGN

Compound	HPLC of pGpG formation, 254 nm [1]	HPLC of c-di-GMP formation [2]
Nc1nc2c(ncn2[C@@H]2O[C@@H]3COP(=O)(O)O[C@H]4[C@@H](O)[C@H](n5cnc6c(=O)[nH]c(N)nc65)O[C@@H]4COP(=O)(O)O[C@H]3[C@H]2O)c(=O)[nH]1 [c-di-GMP]	HPLC analysis showed that the degradation product pGpG was produced	–
Nc1nc2c(ncn2[C@@H]2O[C@H](COP(=O)(O)OP(=O)(O)OP(=O)(O)O)[C@@H](O)[C@H]2O)c(=O)[nH]1 [GTP]	–	the control protein WspR could convert most GTP into c-di-GMP
